Measured values taken from the supplement of paper PMC4932681.

Legend:
[1] = tested on: BT-474 Tam1; experiment: relative IC50 (midpoint of fitted logistic curve, plateau may be below 50% inhibition; CellTiter-Glo viability); higher = less potent; settings: 4-OH-tamoxifen in medium 1 µM; 72 h
Outline: (§1)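 After seeding into 384-well plates with library drugs at five concentrations spanning a 10 000-fold range, breast cancer cell lines and their resistant derivatives were incubated 72 h at 37 °C. Resistant lines received medium with 1 μM of the selecting drug. CellTiter-Glo signal was read on a PHERAstar and scaled to vehicle-only and positive controls. Drug sensitivity score, relative IC50 (the curve midpoint) and top-dose inhibition came from logistic fits run in the Breeze pipeline.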

[2] = tested on: ZR-75-1; experiment: as above; settings: 72 h
Outline: as §1

[3] = tested on: ZR-75-1 Tam1; experiment: as above; settings: 4-OH-tamoxifen in medium 1 µM; 72 h
Outline: as §1

[4] = tested on: MCF-7; experiment: as above; settings: 72 h
Outline: as §1

[5] = tested on: ZR-75-1 Tam2; experiment: as above; settings: 4-OH-tamoxifen in medium 1 µM; 72 h
Outline: as §1

[6] = tested on: T-47D Tam2; experiment: as above; settings: 4-OH-tamoxifen in medium 1 µM; 72 h
Outline: as §1

[7] = tested on: T-47D; experiment: as above; settings: 72 h
Outline: as §1

[8] = tested on: MCF-7 Tam1; experiment: as above; settings: 4-OH-tamoxifen in medium 1 µM; 72 h
Outline: as §1

[9] = tested on: BT-474; experiment: as above; settings: 72 h
Outline: as §1

[10] = tested on: T-47D Tam1; experiment: as above; settings: 4-OH-tamoxifen in medium 1 µM; 72 h
Outline: as §1

[11] = tested on: BT-474 Tam2; experiment: as above; settings: 4-OH-tamoxifen in medium 1 µM; 72 h
Outline: as §1

[12] = tested on: BT-474 Tam1; experiment: drug sensitivity score (DSS) (DSS (dimensionless)); higher = more sensitive; extreme values may be limits of the assay; settings: 4-OH-tamoxifen in medium 1 µM; 72 h
Outline: as §1

[13] = tested on: ZR-75-1; experiment: as above; settings: 72 h
Outline: as §1

[14] = tested on: ZR-75-1 Tam1; experiment: as above; settings: 4-OH-tamoxifen in medium 1 µM; 72 h
Outline: as §1

[15] = tested on: MCF-7; experiment: as above; settings: 72 h
Outline: as §1

[16] = tested on: ZR-75-1 Tam2; experiment: as above; settings: 4-OH-tamoxifen in medium 1 µM; 72 h
Outline: as §1

[17] = tested on: T-47D Tam2; experiment: as above; settings: 4-OH-tamoxifen in medium 1 µM; 72 h
Outline: as §1

[18] = tested on: T-47D; experiment: as above; settings: 72 h
Outline: as §1

[19] = tested on: MCF-7 Tam1; experiment: as above; settings: 4-OH-tamoxifen in medium 1 µM; 72 h
Outline: as §1

[20] = tested on: BT-474; experiment: as above; settings: 72 h
Outline: as §1

[21] = tested on: T-47D Tam1; experiment: as above; settings: 4-OH-tamoxifen in medium 1 µM; 72 h
Outline: as §1

[22] = tested on: BT-474 Tam2; experiment: as above; settings: 4-OH-tamoxifen in medium 1 µM; 72 h
Outline: as §1

SMILES | relative IC50 [1] [µM] | relative IC50 ([2]; 4-OH-tamoxifen in medium 0 µM) [µM] | relative IC50 ([2]; 4-OH-tamoxifen in medium 1 µM) [µM] | relative IC50 [3] [µM] | relative IC50 ([4]; 4-OH-tamoxifen in medium 0 µM) [µM] | relative IC50 [5] [µM] | relative IC50 [6] [µM] | relative IC50 ([7]; 4-OH-tamoxifen in medium 0 µM) [µM] | relative IC50 ([7]; 4-OH-tamoxifen in medium 1 µM) [µM] | relative IC50 [8] [µM] | relative IC50 ([9]; 4-OH-tamoxifen in medium 0 µM) [µM] | relative IC50 [10] [µM] | relative IC50 [11] [µM] | drug sensitivity score [12] | drug sensitivity score ([13]; 4-OH-tamoxifen in medium 0 µM) | drug sensitivity score ([13]; 4-OH-tamoxifen in medium 1 µM) | drug sensitivity score [14] | drug sensitivity score ([15]; 4-OH-tamoxifen in medium 0 µM) | drug sensitivity score ([15]; 4-OH-tamoxifen in medium 1 µM) | drug sensitivity score [16] | drug sensitivity score [17] | drug sensitivity score ([18]; 4-OH-tamoxifen in medium 0 µM) | drug sensitivity score ([18]; 4-OH-tamoxifen in medium 1 µM) | drug sensitivity score [19] | drug sensitivity score ([20]; 4-OH-tamoxifen in medium 0 µM) | drug sensitivity score ([20]; 4-OH-tamoxifen in medium 1 µM) | drug sensitivity score [21] | drug sensitivity score [22] | relative IC50 ([9]; 4-OH-tamoxifen in medium 1 µM) [µM] | relative IC50 ([4]; 4-OH-tamoxifen in medium 1 µM) [µM]
CS(=O)(=O)OCCCCOS(C)(=O)=O [Busulfan] | > 100 | > 100 | > 100 | > 100 | > 100 | > 100 | > 100 | > 100 | > 100 | > 100 | > 100 | > 100 | > 100 | 0 | 0 | 0 | 0 | 0 | 0.0038 | 0 | 0 | 0 | 0 | 0 | 0 | 0 | 0 | 0 |  | 
CN(C)c1nc(N(C)C)nc(N(C)C)n1 [Altretamine] | > 10 | > 10 | > 10 | > 10 | > 10 | > 10 | > 10 | > 10 |  | > 10 | > 10 | 3.37 | > 10 | 0 | 0 | 0 | 0 | 0 | 0.0496 | 0 | 0 | 0 | 0.283 | 0 | 0 | 0 | 2.61 | 0 | > 10 | 
CC(C)n1nc(-c2ccc3oc(N)nc3c2)c2c(N)ncnc21 [INK128] | 0.0209 | 0.00613 | 0.00656 | 0.00481 | 0.00736 | 0.00649 | 0.00749 | 0.0116 | 0.0119 | 0.0114 | 0.0275 | 0.00291 | 0.0302 | 13.2 | 16.1 | 13.6 | 15.1 | 18.9 | 13.6 | 17.5 | 8.98 | 15.4 | 8.51 | 7.07 | 5.72 | 9.54 | 16.9 | 7.32 | 0.0471 | 0.00762
Cc1c(CN2CCN(C(=O)[C@H](C)O)CC2)sc2c(N3CCOCC3)nc(-c3cnc(N)nc3)nc12 [GDC-0980] | 0.154 | 0.0865 | 0.145 | 0.178 | 0.123 | 0.16 | 0.212 | 0.199 | 0.39 | 0.226 | 0.137 | 0.117 | 0.303 | 18.3 | 16.5 | 11.8 | 13.5 | 17.4 | 15.9 | 14.9 | 12.4 | 14.7 | 12.1 | 9.79 | 13.5 | 18.4 | 15.3 | 15.1 | 0.17 | 0.146
